Experimental data reported in patent US11976057B2, “MrgX2 antagonists” (GlaxoSmithKline Intellectual Property Development Limited, priority 2020, dated 2024).

Molecular target: T1, human MRGPRX2 (Homo sapiens, UniProt Q96LB1)
T1 sequence (Q96LB1 1-330): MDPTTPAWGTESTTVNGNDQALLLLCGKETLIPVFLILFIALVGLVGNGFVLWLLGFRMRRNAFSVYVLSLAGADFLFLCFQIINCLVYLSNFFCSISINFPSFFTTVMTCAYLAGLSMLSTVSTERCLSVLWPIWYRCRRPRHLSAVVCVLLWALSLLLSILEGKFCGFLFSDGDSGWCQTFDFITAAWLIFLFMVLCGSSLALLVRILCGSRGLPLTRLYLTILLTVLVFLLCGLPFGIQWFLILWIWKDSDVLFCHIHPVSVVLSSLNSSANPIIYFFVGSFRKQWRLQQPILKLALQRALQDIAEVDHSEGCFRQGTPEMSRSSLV
Assay: Ca2+ mobilization assay (FLIPR TETRA): inhibition of Cortistatin-14 mediated MRGPRX2 activation

| Structure (SMILES) | IC50 [nM] |
| --- | --- |
| COc1ccc(NC(=O)C(C)N2CCC(F)(F)[C@@H](c3ccc(=O)[nH]c3)C2)nc1 (stereo partly drawn) [Example 44, 2-((S)-4,4-difluoro-3-(6-oxo-1,6-dihydropyridin-3-yl)piperidin-1-yl)-N-(5-methoxypyridin-2-yl)propanamide] | 3160 to 31600 |
| C[C@@H](C(=O)Nc1ccc(OCC2CC2)cn1)N1CCC[C@@H](c2c[nH]c(=O)cc2C(F)(F)F)C1 (single isomer, unassigned) [Example 169] | 100 to 3160 |
| C[C@@H](C(=O)Nc1ccc(Cl)cn1)N1CCC[C@@H](c2c[nH]c(=O)c(CO)c2)C1 (single isomer, unassigned) [Example 177] | 3160 to 31600 |
| C[C@@H](C(=O)Nc1ccc2ccccc2n1)N1CCC(F)(F)[C@@H](c2ccc(=O)[nH]c2)C1 [Example 54, (S)-2-((S)-4,4-difluoro-3-(6-oxo-1,6-dihydropyridin-3-yl)piperidin-1-yl)-N-(quinolin-2-yl)propanamide] | 100 to 3160 |
| CC(C(=O)Nc1ccc(F)cn1)N1CCC(F)(F)C(c2c[nH]c(=O)c(C(N)=O)c2)C1 (stereo not drawn) [Example 253] | 100 to 3160 |
| CC(C(=O)Nc1ccc2cc(C3CC3)cnc2n1)N1CCC(F)(F)[C@@H](c2ccc(=O)[nH]c2)C1 (stereo partly drawn) [Example 77, N-(6-cyclopropyl-1,8-naphthyridin-2-yl)-2-((S)-4,4-difluoro-3-(6-oxo-1,6-dihydropyridin-3-yl)piperidin-1-yl)propanamide] | 100 to 3160 |
| CC(C(=O)Nc1ccc(CC2CC2)cn1)N1CCC(F)(F)[C@@H](c2ccc(=O)[nH]c2)C1 (stereo partly drawn) [Example 41, N-(5-(cyclopropyl-methyl)pyridin-2-yl)-2-((S)-4,4-difluoro-3-(6-oxo-1,6-dihydropyridin-3-yl)piperidin-1-yl)propanamide] | 100 to 3160 |
| C[C@@H](C(=O)Nc1ccc(C(=O)OC2CCC2)cn1)N1CCC(F)(F)[C@@H](c2ccc(=O)[nH]c2)C1 [Example 37, cyclobutyl 6-((S)-2-((S)-4,4-difluoro-3-(6-oxo-1,6-dihydropyridin-3-yl)piperidin-1-yl)propanamido) nicotinate] | 100 to 3160 |
| C[C@@H](C(=O)Nc1ccc(Cl)cn1)N1CCC[C@@H](c2c[nH]c(=O)c(-c3ccccc3)c2)C1 (single isomer, unassigned) [Example 178] | 100 to 3160 |
| CC(N)c1cc(C2CN([C@@H](C)C(=O)Nc3ccc(OCC4CC4)nn3)CCC2(F)F)c[nH]c1=O (stereo partly drawn) [Example 222, (2S)-2-(3-(5-(1-aminoethyl)-6-oxo-1,6-dihydropyridin-3-yl)-4,4-difluoropiperidin-1-yl)-N-(6-(cyclopropylmethoxy)pyridazin-3-yl)propanamide] | 10 to 100 |
| C[C@@H](C(=O)Nc1ccc(F)cn1)N1CCC(F)(F)C(c2c[nH]c(=O)c(C(N)C(F)(F)F)c2)C1 (stereo partly drawn) [Example 232, (2S)-2-(3-(5-(1-amino-2,2,2-trifluoroethyl)-6-oxo-1,6-dihydropyridin-3-yl)-4,4-difluoropiperidin-1-yl)-N-(5-fluoropyridin-2-yl)propanamide] | 100 to 3160 |
| C[C@@H](C(=O)Nc1cc(F)c(OCC2CC2)cn1)N1CCC(F)(F)[C@@H](c2ccc(=O)[nH]c2)C1 [Example 76, (S)-N-(5-(cyclopropyl-methoxy)-4-fluoropyridin-2-yl)-2-((S)-4,4-difluoro-3-(6-oxo-1,6-dihydropyridin-3-yl)piperidin-1-yl)propanamide] | 10 to 100 |
| C[C@@H](C(=O)Nc1ccc(OC2CCCC2)nn1)N1CCC(F)(F)[C@@H](c2ccc(=O)[nH]c2)C1 [Example 101, (S)-N-(6-(cyclopentyloxy)pyridazin-3-yl)-2-((S)-4,4-difluoro-3-(6-oxo-1,6-dihydropyridin-3-yl)piperidin-1-yl)propanamide] | 10 to 100 |
| C[C@@H](C(=O)Nc1cnc(Oc2ccc(F)cc2F)cn1)N1CCC[C@@H](c2cc[n+]([O-])cc2)C1 [Example 181, 4-((S)-1-((S)-1-((5-(2,4-difluorophenoxy)pyrazin-2-yl)amino)-1-oxopropan-2-yl)piperidin-3-yl)pyridine 1-oxide] | 10 to 100 |
| C[C@@H](C(=O)Nc1ccc(Cl)cn1)N1CCC[C@@H](c2ccc(=O)n(Cc3ccccc3)c2)C1 (single isomer, unassigned) [Example 168] | 100 to 3160 |
| Cc1ccccc1Oc1ccc(NC(=O)[C@H](C)N2CCC(F)(F)[C@@H](c3ccc(=O)[nH]c3)C2)nn1 [Example 20] | 100 to 3160 |
| C[C@@H](C(=O)Nc1ccc(OCC2CC2)nn1)N1CCC(F)(F)C(c2ccncc2)C1 (stereo partly drawn) [Example 224, (2S)—N-(6-(cyclopropylmethoxy)pyridazin-3-yl)-2-(4,4-difluoro-3-(pyridin-4-yl)piperidin-1-yl)propanamide] | 100 to 3160 |

The remaining lines, values ahead:

| IC50 [nM] | Structure (SMILES) |
| --- | --- |
| ≤ 10 | C[C@@H](C(=O)Nc1ccc(Oc2ccc(F)cc2F)cn1)N1CCC(F)(F)[C@@H](c2ccc(=O)[nH]c2)C1 [Example 4, (S)-2-((S)-4,4-difluoro-3-(6-oxo-1,6-dihydropyridin-3-yl)piperidin-1-yl)-N-(5-(2,4-difluorophenoxy)pyridin-2-yl)propanamide] |
| 10 to 100 | C[C@@H](C(=O)Nc1ccc(Oc2ccc(F)cn2)cn1)N1CCC(F)(F)[C@@H](c2c[nH]c(=O)c(CO)c2)C1 [Example 157, (S)-2-((S)-4,4-difluoro-3-(5-(hydroxymethyl)-6-oxo-1,6-dihydropyridin-3-yl)piperidin-1-yl)-N-(5-((5-fluoropyridin-2-yl)oxy)pyridin-2-yl)propanamide] |
| 10 to 100 | C[C@@H](C(=O)Nc1ccc(OCC2CC2)nn1)[C@H]1CCC(F)(F)[C@@H](c2ccc(=O)[nH]c2)C1 [Example 276, (R)-N-(6-(cyclopropylmethoxy)pyridazin-3-yl)-2-((1S,3R)-4,4-difluoro-3-(6-oxo-1,6-dihydropyridin-3-yl)cyclohexyl)propanamide] |
| 10 to 100 | C[C@@H](C(=O)Nc1cnc(Oc2ccc(F)cc2)cn1)N1CCC(F)(F)[C@@H](c2c[nH]c(=O)c(CN)c2)C1 [Example 206, (S)-2-((S)-3-(5-(aminomethyl)-6-oxo-1,6-dihydropyridin-3-yl)-4,4-difluoropiperidin-1-yl)-N-(5-(4-fluorophenoxy)pyrazin-2-yl)propanamide] |
| 10 to 100 | C[C@@H](C(=O)Nc1ccc(OCC2CC2)nn1)N1CCC(F)(F)[C@@H](c2c[nH]c(=O)c(CN)c2)C1 [Example 203, (S)-2-((S)-3-(5-(aminomethyl)-6-oxo-1,6-dihydropyridin-3-yl)-4,4-difluoropiperidin-1-yl)-N-(6-(cyclopropylmethoxy)pyridazin-3-yl)propanamide] |
| ≤ 10 | C[C@@H](C(=O)Nc1ccc(OCC2CC2)nn1)N1CCC(F)(F)[C@@H](c2c[nH]c(=O)c([C@H](O)C(F)(F)F)c2)C1 (single isomer, unassigned) [Example 210, (S)-N-(6-(cyclopropylmethoxy)pyridazin-3-yl)-2-((S)-4,4-difluoro-3-(6-oxo-5-((S)-2,2,2-trifluoro-1-hydroxyethyl)-1,6-dihydropyridin-3-yl)piperidin-1-yl)propanamide or (S)-N-(6-(cyclopropylmethoxy(pyridazin-3-yl)-2-((S)-4,4-difluoro-3-(6-oxo-5-((R)-2,2,2-trifluoro-1-hydroxyethyl)-1,6-dihydroypridin-3-yl)piperidin-1-yl)propanamide] |
| 10 to 100 | CC(C(=O)Nc1cnc(Oc2ccc(F)cc2)cn1)C1CCC[C@@H](c2ccc(=O)[nH]c2)C1 (stereo partly drawn) [Example 284, N-(5-(4-fluorophenoxy)pyrazin-2-yl)-2-((3R)-3-(6-oxo-1,6-dihydropyridin-3-yl)cyclohexyl)propanamide] |
| ≤ 10 | C[C@@H](C(=O)Nc1ccc(OCC2CC2)nn1)N1CCC(F)(F)[C@@H](c2ccc(=O)n(CC(F)(F)F)c2)C1 [Example 1, (S)—N-(6-(cyclopropylmethoxy)pyridazin-3-yl)-2-((S)-4,4-difluoro-3-(6-oxo-1-(2,2,2-trifluoroethyl)-1,6-dihydropyridin-3-yl)piperidin-1-yl)propanamide] |
| 10 to 100 | Cc1nc(-c2ccc(Oc3ccc(NC(=O)[C@H](C)N4CCC(F)(F)[C@@H](c5ccc(=O)[nH]c5)C4)nc3)c(F)c2)cs1 [Example 99, (S)-2-((S)-4,4-difluoro-3-(6-oxo-1,6-dihydropyridin-3-yl)piperidin-1-yl)-N-(5-(2-fluoro-4-(2-methylthiazol-4-yl)phenoxy)pyridin-2-yl)propanamide] |
| 10 to 100 | C[C@@H](C(=O)Nc1ccc(C2CC2)cn1)N1CCC(F)(F)[C@@H](c2ccc(=O)[nH]c2)C1 [Example 15, (S)-N-(5-cyclopropyl-pyridin-2-yl)-2-((S)-4,4-difluoro-3-(6-oxo-1,6-dihydropyridin-3-yl)piperidin-1-yl)propanaraide] |
| 10 to 100 | C[C@@H](C(=O)Nc1ccc(Cc2ccccc2)nn1)N1CCC(F)(F)[C@@H](c2ccc(=O)[nH]c2)C1 [Example 12, (S)-N-(6-benzylpyridazin-3-yl)-2-((S)-4,4-difluoro-3-(6-oxo-1,6-dihydropyridin-3-yl)piperidin-1-yl)propanamide] |
| ≤ 10 | C[C@@H](C(=O)Nc1ccc(Oc2ncc(F)cc2F)cn1)[C@H]1CCC[C@@H](c2ccc(=O)[nH]c2)C1 [Example 285, (R)-N-(5-((3,5-difluoropyridin-2-yl)oxy)pyridin-2-yl)-2-((1S,3R)-3-(6-oxo-1,6-dihydropyridin-3-yl)cyclohexyl)propanamide] |
| ≤ 10 | C[C@@H](C(=O)Nc1ccc(Oc2ccc(F)cc2F)cn1)[C@H]1CCC(F)(F)[C@@H](c2cc[n+]([O-])cc2)C1 [Example 291, 4-((1R,5S)-5-((R)-1-((5-(2,4-difluorophenoxy)pyridin-2-yl)amino)-1-oxopropan-2-yl)-2,2-difluorocyclohexyl)pyridine 1-oxide] |
